Laboratory results reported in US7138361B2, “Herbicidal heterocycles” (E. I. du Pont de Nemours and Company, priority 2000, dated 2006).

Legend:
Format in all cases: in vivo
[1] = tested on: Surinam grass (Brachiaria decumbens); experiment: Test B postemergence
Procedure, shortened: (§1)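 Seeds were planted and sprayed preemergence with test chemical in a non-phytotoxic solvent mixture containing surfactant; postemergence plants (2 to 18 cm, 1- to 4-leaf stage) received the same formulation. Greenhouse hold 13 to 15 days, then visual rating versus untreated controls on a 0–100 scale (0 no effect, 100 complete control).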

[2] = tested on: barnyardgrass (Echinochloa crus-galli); experiment: Test B postemergence
Procedure, shortened: as §1

[3] = tested on: blackgrass (Alopecurus myosuroides); experiment: Test B postemergence
Procedure, shortened: as §1

[4] = tested on: cocklebur (Xanthium strumarium); experiment: Test B postemergence
Procedure, shortened: as §1

corn (Zea mays) [5] = experiment: Test B postemergence
Procedure, shortened: as §1

[6] = tested on: crabgrass (Digitaria sanguinalis); experiment: Test B postemergence
Procedure, shortened: as §1

[7] = tested on: giant foxtail (Setaria faberii); experiment: Test B postemergence
Procedure, shortened: as §1

[8] = tested on: lambsquarters (Chenopodium album); experiment: Test B postemergence
Procedure, shortened: as §1

[9] = tested on: morning glory (Ipomoea hederacea); experiment: Test B postemergence
Procedure, shortened: as §1

[10] = tested on: pigweed (Amaranthus retroflexus); experiment: Test B postemergence
Procedure, shortened: as §1

[11] = tested on: velvetleaf (Abutilon theophrasti); experiment: Test B postemergence
Procedure, shortened: as §1

[12] = tested on: wheat (Triticum aestivum); experiment: Test B postemergence
Procedure, shortened: as §1

wild oat (Avena fatua) = experiment: Test B postemergence
Procedure, shortened: as §1

[13] = tested on: Surinam grass (Brachiaria decumbens); experiment: Test B preemergence
Procedure, shortened: as §1

[14] = tested on: barnyardgrass (Echinochloa crus-galli); experiment: Test B preemergence
Procedure, shortened: as §1

[15] = tested on: cocklebur (Xanthium strumarium); experiment: Test B preemergence
Procedure, shortened: as §1

corn (Zea mays) [16] = experiment: Test B preemergence
Procedure, shortened: as §1

[17] = tested on: crabgrass (Digitaria sanguinalis); experiment: Test B preemergence
Procedure, shortened: as §1

[18] = tested on: giant foxtail (Setaria faberii); experiment: Test B preemergence
Procedure, shortened: as §1

[19] = tested on: lambsquarters (Chenopodium album); experiment: Test B preemergence
Procedure, shortened: as §1

[20] = tested on: morning glory (Ipomoea hederacea); experiment: Test B preemergence
Procedure, shortened: as §1

[21] = tested on: pigweed (Amaranthus retroflexus); experiment: Test B preemergence
Procedure, shortened: as §1

rice (Oryza saliva) = experiment: Test B preemergence
Procedure, shortened: as §1

[22] = tested on: velvetleaf (Abutilon theophrasti); experiment: Test B preemergence
Procedure, shortened: as §1

[23] = tested on: barnyardgrass (Echinochloa crus-galli); experiment: Test C flooded paddy test; conditions: for Barnyardgrass plant response rating: Flooded Paddy, Rate 500 g/ha, scale 0 to 100, 0 no effect, 100 complete control; for Plant response rating, Barnyardgrass / Plant response rating (scale 0 to 100), Barnyardgrass: flooded paddy test; for Plant response rating, Barnyardgrass: scale 0 to 100 (0 no effect, 100 complete control); for Plant response rating (scale 0 to 100), Barnyardgrass: Rate 62 g/ha, visually evaluated after 12 to 14 days, 0 = no effect, 100 = complete control
Procedure, shortened: (§2)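 Greenhouse-maintained for 12 to 14 days after treatment, the paddy plants (2-leaf stage at application) were scored visually against controls. A score of 0 denotes no effect and a score of 100 denotes complete control.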

[24] = tested on: duck salad (Heteranthera limosa); experiment: Test C flooded paddy test; conditions: for Ducksalad plant response rating: Flooded Paddy, Rate 500 g/ha, scale 0 to 100, 0 no effect, 100 complete control; for Plant response rating, Ducksalad / Plant response rating (scale 0 to 100), Ducksalad: flooded paddy test; for Plant response rating, Ducksalad: scale 0 to 100 (0 no effect, 100 complete control); for Plant response rating (scale 0 to 100), Ducksalad: Rate 62 g/ha, visually evaluated after 12 to 14 days, 0 = no effect, 100 = complete control
Procedure, shortened: as §2

Sunflower = experiment: Test C preemergence; conditions: Rate 500 g/ha, visual evaluation after 12 to 14 days
[25] = Rate 125 g/ha, scale 0 to 100, 0 no effect, 100 complete control
[26] = Rate 500 g/ha, scale 0 (no effect) to 100 (complete control), 13 to 15 days
[27] = Preemergence, Rate 500 g/ha, scale 0 to 100, 0 no effect, 100 complete control
[28] = preemergence, Rate 125 g/ha, scale of 0 to 100 where 0 is no effect and 100 is complete control, 13 to 15 days

COc1cc(N2CCC(n3ccc(C(C)C)n3)C2=O)ccc1Br (stereo not drawn) [Compound 140]
Plant response rating, Surinam grass [1, 25]: 0
Plant response rating, Surinam grass [1, 26]: 0
Plant response rating, Barnyardgrass [2, 25]: 0
Plant response rating, Barnyardgrass [2, 26]: 80
Plant response rating, Blackgrass [3, 25]: 0
Plant response rating, Blackgrass [3, 26]: 0
Plant response rating, Cocklebur [4, 25]: 60
Plant response rating, Cocklebur [4, 26]: 90
Plant response rating, Corn (corn (Zea mays) [5]; [25]): 0
Plant response rating, Corn (corn (Zea mays) [5]; [26]): 0
Plant response rating, Crabgrass [6, 25]: 20
Plant response rating, Crabgrass [6, 26]: 80
Plant response rating, Foxtail, Giant [7, 25]: 0
Plant response rating, Foxtail, Giant [7, 26]: 70
Plant response rating, Lambsquarters [8, 25]: 70
Plant response rating, Lambsquarters [8, 26]: 100
Plant response rating, Morningglory [9, 25]: 0
Plant response rating, Morningglory [9, 26]: 100
Plant response rating, Pigweed [10, 25]: 60
Plant response rating, Pigweed [10, 26]: 90
Plant response rating, Velvetleaf [11, 25]: 0
Plant response rating, Velvetleaf [11, 26]: 60
Plant response rating, Wheat [12, 25]: 0
Plant response rating, Wheat [12, 26]: 0
Plant response rating, Wild Oat (wild oat (Avena fatua); [25]): 0
Plant response rating, Wild Oat (wild oat (Avena fatua); [26]): 0
Plant response rating, Surinam grass [13, 27]: 100
Plant response rating, Surinam grass [13, 28]: 100
Plant response rating, Barnyardgrass [14, 27]: 100
Plant response rating, Barnyardgrass [14, 28]: 100
Plant response rating, Cocklebur [15, 27]: 60
Plant response rating, Cocklebur [15, 28]: 20
Plant response rating, Corn (corn (Zea mays) [16]; [27]): 20
Plant response rating, Corn (corn (Zea mays) [16]; [28]): 0
Plant response rating, Crabgrass [17, 27]: 100
Plant response rating, Crabgrass [17, 28]: 100
Plant response rating, Foxtail, Giant [18, 27]: 100
Plant response rating, Foxtail, Giant [18, 28]: 100
Plant response rating, Lambsquarters [19, 27]: 100
Plant response rating, Lambsquarters [19, 28]: 100
Plant response rating, Morningglory [20, 27]: 100
Plant response rating, Morningglory [20, 28]: 0
Plant response rating, Pigweed [21, 27]: 100
Plant response rating, Pigweed [21, 28]: 100
Plant response rating, Rice (rice (Oryza saliva); [27]): 40
Plant response rating, Rice (rice (Oryza saliva); [28]): 20
Plant response rating, Velvetleaf [22, 27]: 80
Plant response rating, Velvetleaf [22, 28]: 60
Barnyardgrass plant response rating [23]: 100
Plant response rating, Barnyardgrass ([23]; Rate 125 g/ha): 100
Plant response rating, Barnyardgrass ([23]; Rate 250 g/ha): 100
Plant response rating (scale 0 to 100), Barnyardgrass [23]: 50
Ducksalad plant response rating [24]: 95
Plant response rating, Ducksalad ([24]; Rate 125 g/ha): 75
Plant response rating, Ducksalad ([24]; Rate 250 g/ha): 95
Plant response rating (scale 0 to 100), Ducksalad [24]: 20
Plant response rating (0 to 100), Sunflower (Sunflower): 90

COc1cc(N2CCC(n3ccc(C(C)(C)C)n3)C2=O)ccc1Br (stereo not drawn) [Compound 141]
Plant response rating, Surinam grass [1, 25]: 0
Plant response rating, Surinam grass [1, 26]: 0
Plant response rating, Barnyardgrass [2, 25]: 0
Plant response rating, Barnyardgrass [2, 26]: 80
Plant response rating, Blackgrass [3, 25]: 0
Plant response rating, Blackgrass [3, 26]: 40
Plant response rating, Cocklebur [4, 25]: 40
Plant response rating, Cocklebur [4, 26]: 100
Plant response rating, Corn (corn (Zea mays) [5]; [25]): 0
Plant response rating, Corn (corn (Zea mays) [5]; [26]): 0
Plant response rating, Crabgrass [6, 25]: 20
Plant response rating, Crabgrass [6, 26]: 40
Plant response rating, Foxtail, Giant [7, 25]: 30
Plant response rating, Foxtail, Giant [7, 26]: 50
Plant response rating, Lambsquarters [8, 25]: 90
Plant response rating, Lambsquarters [8, 26]: 100
Plant response rating, Morningglory [9, 25]: 0
Plant response rating, Morningglory [9, 26]: 70
Plant response rating, Pigweed [10, 25]: 80
Plant response rating, Pigweed [10, 26]: 100
Plant response rating, Velvetleaf [11, 25]: 50
Plant response rating, Velvetleaf [11, 26]: 70
Plant response rating, Wheat [12, 25]: 0
Plant response rating, Wheat [12, 26]: 0
Plant response rating, Wild Oat (wild oat (Avena fatua); [25]): 0
Plant response rating, Wild Oat (wild oat (Avena fatua); [26]): 0
Plant response rating, Surinam grass [13, 27]: 100
Plant response rating, Surinam grass [13, 28]: 100
Plant response rating, Barnyardgrass [14, 27]: 100
Plant response rating, Barnyardgrass [14, 28]: 100
Plant response rating, Cocklebur [15, 27]: 100
Plant response rating, Cocklebur [15, 28]: 70
Plant response rating, Corn (corn (Zea mays) [16]; [27]): 20
Plant response rating, Corn (corn (Zea mays) [16]; [28]): 0
Plant response rating, Crabgrass [17, 27]: 100
Plant response rating, Crabgrass [17, 28]: 100
Plant response rating, Foxtail, Giant [18, 27]: 100
Plant response rating, Foxtail, Giant [18, 28]: 100
Plant response rating, Lambsquarters [19, 27]: 100
Plant response rating, Lambsquarters [19, 28]: 100
Plant response rating, Morningglory [20, 27]: 100
Plant response rating, Morningglory [20, 28]: 90
Plant response rating, Pigweed [21, 27]: 100
Plant response rating, Pigweed [21, 28]: 100
Plant response rating, Rice (rice (Oryza saliva); [27]): 50
Plant response rating, Rice (rice (Oryza saliva); [28]): 30
Plant response rating, Velvetleaf [22, 27]: 100
Plant response rating, Velvetleaf [22, 28]: 70
Barnyardgrass plant response rating [23]: 100
Plant response rating, Barnyardgrass ([23]; Rate 125 g/ha): 100
Plant response rating, Barnyardgrass ([23]; Rate 250 g/ha): 100
Plant response rating (scale 0 to 100), Barnyardgrass [23]: 70
Ducksalad plant response rating [24]: 100
Plant response rating, Ducksalad ([24]; Rate 125 g/ha): 95
Plant response rating, Ducksalad ([24]; Rate 250 g/ha): 100
Plant response rating (scale 0 to 100), Ducksalad [24]: 85
Plant response rating (0 to 100), Sunflower (Sunflower): 100
